Reference: patent US20080269167A1, “Preparation Comprising Iron(III) Complex Compounds And Redox-Active Substance(s)” (VIFOR (INTERNATIONAL) AG, priority 2005, published 2008)

How the values were obtained:
[1] = pH 7; relative to normal hydrogen electrode; cited from earlier work
[2] = Reaction of iron(III)-polymaltose complex with ascorbic acid in buffered solution, UV-VIS, exclusion of oxygen; type: physicochemical
Source text: The following measurements were obtained when iron(III)-polymaltose complex with ascorbic acid (ascorbic acid) was investigated at pH 3.0, 5.5 and 8.0:
The buffered solutions (buffers as described above, see Geisser, P., Arneim. -Forsch./Drug Res. 1990, 40 (II), 7, 754-760) were mixed in a molar ratio of Fe(III):ascorbic acid of 1:1, the concentration of Fe(III) and ascorbic acid in the mixture being 5×10^−5 mol/l in each case, and investigated using a conventional UV-VIS spectrophotometer. The operation was carried out with the strict exclusion of oxygen.

[3] = pH 3.0, reaction time 2 h, Fe(III):ascorbic acid 1:1, 5x10^-5 mol/l
[4] = pH 3.0, reaction time 4 h, Fe(III):ascorbic acid 1:1
[5] = pH 5.5, reaction time 2 h, Fe(III):ascorbic acid 1:1
[6] = pH 8.0, reaction time 2 h, Fe(III):ascorbic acid 1:1
[7] = pH 8.0, reaction time 4 h, Fe(III):ascorbic acid 1:1

Compound | redox potential [1] | reaction with ascorbic acid to give dehydroascorbic acid ([2]; pH 3, 5.5 and 8, buffered solution, exclusion of oxygen) | Formation of Fe2+ ions [2, 3] | Formation of dehydroascorbic acid [2, 3] | Formation of Fe2+ ions [2, 4] | Formation of dehydroascorbic acid [2, 4] | Formation of Fe2+ ions [2, 5] | Formation of dehydroascorbic acid [2, 5] | Formation of Fe2+ ions [2, 6] | Formation of dehydroascorbic acid [2, 6] | Formation of Fe2+ ions [2, 7] | Formation of dehydroascorbic acid [2, 7] | reaction with ascorbic acid to dehydroascorbic acid and Fe(II) ([2]; within a period of 4 hours, pH values of from 3 to 8)
O=C1O[C@H]([C@@H](O)CO)C(O)=C1O [ascorbic acid, reference compound] | −66 mV |  |  |  |  |  |  |  |  |  |  |  | 
iron(III)-polymaltose complex | −332 mV | does not react | 2% | 2% | 7% | 7% | 0% | 0% | 5% | 9% | 5% | 13% | reacts only slowly
